Assay results taken from PubChem BioAssay AID274 (DTP/NCI, 2004).
Where “and” joins values, the source holds several entries; their conditions need not be identical. Equal entries are not always repeated. Inconclusive results and toxic doses are left out. How the source made its calls: active means survival T/C of 150% or more; inactive means T/C below 125% in these data. Numbered stars: 1 amine (or outer) side, 2 acyl side, 3 side chain; on linkers, the order of the positions; unused ones are H or OH. Bridge positions count the residues as written; N and C are the ends. Square brackets hold non-standard residues; d marks the D form. Peptide text beside a SMILES is read from it. I, II: the chains in the order shown. Actinocin(9to1) = Cc1c2oc3c(C)ccc(C(=O)[*:1])c3nc-2c(C(=O)[*:2])c(N)c1=O; aThr = C[C@H](O)[C@H](N)C(=O)O; NMeV = CN[C@H](C(=O)O)C(C)C; Sar = CNCC(=O)O

System: BDF1 mice, Lewis lung carcinoma iv, survival T/C
Test: NCI In Vivo Anticancer Drug Screen. Data for tumor model Lewis Lung Carcinoma (intravenous) in B6D2F1 (BDF1) mice
Settings: endpoint: median survival time, higher = longer survival
Description: The antitumor activity of compounds was measured in mice bearing transplantable tumors. Survival or tumor size were measured and the results are expressed as the measurement made in the treated group (T) divided by the measurement made in the vehicle treated control group (C). The tumor model used in this assay is Lewis Lung Carcinoma (intravenous) in B6D2F1 (BDF1) mice

[1] = dose: 6.25 mg/kg/injection, schedule: Q01DX009 (ip), vehicle: saline with Tween-80
[2] = dose: 12.5 mg/kg/injection, schedule: Q01DX009 (ip), vehicle: saline with Tween-80
[3] = dose: 25.0 mg/kg/injection, schedule: Q01DX009 (ip), vehicle: saline with Tween-80
[4] = dose: 50.0 mg/kg/injection, schedule: Q01DX009 (ip), vehicle: saline with Tween-80
[5] = dose: 100.0 mg/kg/injection, schedule: Q01DX009 (ip), vehicle: saline with Tween-80
[6] = dose: 200.0 mg/kg/injection, schedule: Q01DX009 (ip), vehicle: saline with Tween-80
[7] = dose: 12.5 mg/kg/injection, schedule: Q01DX009 (ip), vehicle: saline
[8] = dose: 25.0 mg/kg/injection, schedule: Q01DX009 (ip), vehicle: saline
[9] = dose: 50.0 mg/kg/injection, schedule: Q01DX009 (ip), vehicle: saline
[10] = dose: 100.0 mg/kg/injection, schedule: Q01DX009 (ip), vehicle: saline
[11] = dose: 6.25 mg/kg/injection, schedule: Q01DX009 (ip), vehicle: Klucel (hydroxypropylcellulose) (HPC)
[12] = dose: 12.5 mg/kg/injection, schedule: Q01DX009 (ip), vehicle: Klucel (hydroxypropylcellulose) (HPC)
[13] = dose: 25.0 mg/kg/injection, schedule: Q01DX009 (ip), vehicle: Klucel (hydroxypropylcellulose) (HPC)
[14] = dose: 50.0 mg/kg/injection, schedule: Q01DX009 (ip), vehicle: Klucel (hydroxypropylcellulose) (HPC)
[15] = dose: 3.12 mg/kg/injection, schedule: Q01DX009 (ip), vehicle: saline
[16] = dose: 6.25 mg/kg/injection, schedule: Q01DX009 (ip), vehicle: saline

Measured: T/C

COP12(OCCO1)SC(C(F)(F)F)=C(C(F)(F)F)S2
inactive: [1] 106 % of control | [2] 105 % of control | [3] 98 % of control | [4] 95 % of control

CCO/C=C1\SC(=S)N(c2ccccc2C)C1=O
inactive: [2] 96 % of control | [3] 94 % of control | [4] 100 % of control | [5] 106 % of control | [6] 99 % of control

NC(=S)n1cccn1
inactive: [4] 99 % of control | [5] 94 % of control | [6] 103 % of control

C[C@]12CC[C@H]3[C@@H](CC[C@]4(O)C[C@@H](O)CC[C@]34C=O)[C@@]1(O)CC[C@@H]2C1=CC(=O)OC1
inactive: [7] 96 % of control | [8] 108 % of control | [9] 108 % of control | [10] 100 % of control

Clc1ccc2nnnn2n1
inactive: [2] 102 % of control | [3] 115 % of control | [4] 104 % of control | [5] 98 % of control | [6] 108 % of control

CC(=O)NC(CCc1ccc(Cl)c(Cl)c1)c1cccc(O)c(=O)c1 (centres undefined)
inactive: [11] 97 % of control | [12] 99 % of control | [13] 95 % of control | [14] 96 % of control

O=C(NCCCN1CC1)C(=O)NCCCN1CC1
inactive: dose: 0.75 mg/kg/injection, schedule: Q01DX009 (ip), vehicle: saline 110 % of control | dose: 1.5 mg/kg/injection, schedule: Q01DX009 (ip), vehicle: saline 114 % of control | dose: 3.0 mg/kg/injection, schedule: Q01DX009 (ip), vehicle: saline 120 % of control

C[CH2][Sn]([CH2]C)([O]S(C)(=O)=O)[O]S(C)(=O)=O
inactive: dose: 0.78 mg/kg/injection, schedule: Q01DX009 (ip), vehicle: saline 98 % of control | dose: 1.56 mg/kg/injection, schedule: Q01DX009 (ip), vehicle: saline 105 % of control | [15] 93 % of control | [16] 92 % of control | [7] 93 % of control

COc1c2occc2cc2ccc(=O)oc12
inactive: dose: 8.0 mg/kg/injection, schedule: Q01DX009 (ip), vehicle: saline with Tween-80 109 % of control | dose: 16.0 mg/kg/injection, schedule: Q01DX009 (ip), vehicle: saline with Tween-80 109 % of control | dose: 32.0 mg/kg/injection, schedule: Q01DX009 (ip), vehicle: saline with Tween-80 96 % of control | dose: 64.0 mg/kg/injection, schedule: Q01DX009 (ip), vehicle: saline with Tween-80 113 % of control | dose: 128.0 mg/kg/injection, schedule: Q01DX009 (ip), vehicle: saline with Tween-80 110 % of control

Cc1c2oc3c(C)ccc(C(=O)N[C@@H]4C(=O)N[C@H](C(C)C)C(=O)N5CCC[C@H]5C(=O)N(C)CC(=O)N(C)[C@@H](C(C)C)C(=O)O[C@H]4C)c3nc-2c(C(=O)N[C@@H]2C(=O)N[C@H](C(C)C)C(=O)N3CCC[C@H]3C(=O)N(C)CC(=O)N(C)[C@@H](C(C)C)C(=O)O[C@H]2C)c(N)c1=O (I: [aThr][dV]P[Sar][NMeV] / II: [aThr][dV]P[Sar][NMeV]; ester I:1-I:C, II:1-II:C; linker I:N-II:N via Actinocin(9to1))
inactive: dose: 65.0 micrograms/kg/injection, schedule: Q04DX003 (ip), vehicle: saline + alcohol 91 % of control | dose: 108.0 micrograms/kg/injection, schedule: Q04DX003 (ip), vehicle: saline + alcohol 92 % of control and 94 % of control | dose: 180.0 micrograms/kg/injection, schedule: Q04DX003 (ip), vehicle: saline + alcohol 97 % of control and 104 % of control | dose: 259.0 micrograms/kg/injection, schedule: Q01DX001 (ip), vehicle: saline + alcohol 94 % of control | dose: 300.0 micrograms/kg/injection, schedule: Q04DX003 (ip), vehicle: saline + alcohol 95 % of control and 106 % of control | dose: 432.0 micrograms/kg/injection, schedule: Q01DX001 (ip), vehicle: saline + alcohol 98 % of control

O=C(/C=C(\Cl)C(=O)NO)NO
inactive: [16] 124 % of control | [7] 105 % of control | [8] 105 % of control | [9] 110 % of control | [10] 115 % of control | dose: 200.0 mg/kg/injection, schedule: Q01DX009 (ip), vehicle: saline 104 % of control

CN(Cc1cnc2nc(N)nc(N)c2n1)c1c(Cl)cc(C(=O)NC(CCC(=O)O)C(=O)O)cc1Cl (centres undefined)
inactive: [12] 96 % of control | [13] 93 % of control | [14] 98 % of control

O=C(CN1CC1)NCCCCCCCCNC(=O)CN1CC1
inactive: dose: 3.13 mg/kg/injection, schedule: Q01DX009 (ip), vehicle: Klucel (hydroxypropylcellulose) (HPC) 115 % of control | [11] 112 % of control | [12] 119 % of control

CC(C)NC(=O)OCc1c(COC(=O)NC(C)C)c(-c2ccc(Cl)c(Cl)c2)n2c1CCC2
inactive: dose: 1.56 mg/kg/injection, schedule: Q01DX009 (ip), vehicle: distilled water + Tween-80 108 % of control | dose: 3.13 mg/kg/injection, schedule: Q01DX009 (ip), vehicle: distilled water + Tween-80 97 % of control | dose: 6.25 mg/kg/injection, schedule: Q01DX009 (ip), vehicle: distilled water + Tween-80 101 % of control | dose: 12.5 mg/kg/injection, schedule: Q01DX009 (ip), vehicle: distilled water + Tween-80 119 % of control | dose: 50.0 mg/kg/injection, schedule: Q01DX009 (ip), vehicle: distilled water + Tween-80 109 % of control

[CH3][Sn]([CH3])([Cl])[S]CCN
inactive: [15] 91 % of control | [16] 95 % of control | [7] 97 % of control | [8] 91 % of control

O=C1c2ccccc2C(=O)c2c(NCCNCCO)ccc(O)c21
inactive: dose: 2.5 mg/kg/injection, schedule: Q01DX009 (ip), vehicle: suspension in saline 92 % of control | dose: 5.0 mg/kg/injection, schedule: Q01DX009 (ip), vehicle: suspension in saline 88 % of control | dose: 10.0 mg/kg/injection, schedule: Q01DX009 (ip), vehicle: suspension in saline 88 % of control | dose: 20.0 mg/kg/injection, schedule: Q01DX009 (ip), vehicle: suspension in saline 97 % of control | dose: 40.0 mg/kg/injection, schedule: Q01DX009 (ip), vehicle: suspension in saline 103 % of control | dose: 80.0 mg/kg/injection, schedule: Q01DX009 (ip), vehicle: suspension in saline 102 % of control

CC1(CO)C(O)CCC2(C)C1CCC1CC3CC12CCC3(O)CO (centres undefined)
inactive: [1] 87 % of control | [2] 97 % of control | [3] 110 % of control | [6] 106 % of control

CSc1ccc2c(c1)C(N1CCN(C)CC1)Cc1ccccc1S2 (centres undefined)
inactive: dose: 1.56 mg/kg/injection, schedule: Q01DX009 (ip), vehicle: saline with Tween-80 102 % of control

CC(C)n1cc2c(N)ncnc2n1
inactive: [8] 107 % of control | [9] 112 % of control | [10] 117 % of control

CCCC(=O)O
inactive: [7] 93 % of control | [8] 104 % of control | [9] 95 % of control | [10] 112 % of control

CN(C1=NS(=O)(=O)N=C(N(C)c2ccccc2)O1)c1ccccc1
inactive: [12] 97 % of control | [13] 102 % of control | [14] 97 % of control | dose: 100.0 mg/kg/injection, schedule: Q01DX009 (ip), vehicle: Klucel (hydroxypropylcellulose) (HPC) 99 % of control | dose: 200.0 mg/kg/injection, schedule: Q01DX009 (ip), vehicle: Klucel (hydroxypropylcellulose) (HPC) 117 % of control | dose: 400.0 mg/kg/injection, schedule: Q01DX009 (ip), vehicle: Klucel (hydroxypropylcellulose) (HPC) 102 % of control

O=C(O)C(CSC(c1ccccc1)(c1ccccc1)c1ccccc1)N=Cc1cccs1 (centres undefined)
inactive: [7] 107 % of control | [8] 102 % of control | [9] 101 % of control

O=C(Nc1nncs1)c1cccs1
inactive: [2] 95 % of control | [3] 104 % of control | [4] 92 % of control | [5] 94 % of control | [6] 98 % of control | dose: 400.0 mg/kg/injection, schedule: Q01DX009 (ip), vehicle: saline with Tween-80 95 % of control

C1CCC2OCCOCCOC3CCCCC3OCCOCCOC2C1 (centres undefined)
inactive: dose: 3.12 mg/kg/injection, schedule: Q01DX009 (ip), vehicle: Klucel (hydroxypropylcellulose) (HPC) 92 % of control | [11] 87 % of control | [12] 101 % of control | [13] 93 % of control | [14] 91 % of control

Cc1ccc2c(c1)N=C(Nc1ccccc1)N=S2(C)=O (centres undefined)
inactive: [1] 102 % of control | [2] 102 % of control | [3] 111 % of control | [4] 112 % of control | [5] 115 % of control | [6] 116 % of control
